Tested on: Mtb H37Rv-resistant mutants (adoK D251N, Q172P, G262S)
Assay type: cell-based, Mycobacterium tuberculosis

Molecule `Nc1ncnc2c1c(I)cn2[C@@H]1O[C@H](CO)[C@@H](O)[C@H]1O` [Compound 2, Iodotubercidin] has an MIC greater than 100 µM.

From paper PMC6511943, “Structure-Guided Drug Design of 6-Substituted Adenosine Analogues as Potent Inhibitors of Mycobacterium tuberculosis Adenosine Kinase” (Journal of Medicinal Chemistry, 2019)
